Source: US8394398B2 (Abbott Laboratories, priority 1997, dated 2013)
Where two headings read alike, the source gives them in different places.

Key:
[1] = Phase 1 multiple escalating dose study, QD intravenous infusion for 14 days, safety and pharmacokinetics; assay type: in vivo, human; settings: for AUC(0-inf) / Cmax / clearance / Vd / half-life / AUC: human, whole blood; for AUC: Day 14, blood
Protocol: The present study was designed to evaluate the pharmacokinetics of zotarolimus following multiple dosing and to assess its safety while maximizing systemic exposure of healthy subjects. […] The study investigated pharmacokinetics and safety of zotarolimus in a Phase 1, multiple dose-escalation study following multiple intravenous infusions of 200, 400 and 800 μg doses, every day for fourteen consecutive days in healthy subjects.
Phase 1, multiple-escalating dose, double-blind, placebo-controlled, randomized study. Seventy-two subjects equally divided in 3 once-daily (QD) regimens (200, 400 or 800 μg QD with 16 active and 8 placebo per regimen) were administered a 60-minute QD IV infusion of zotarolimus for 14 consecutive days. Blood samples were collected over 24 hours following the first dose, before dosing on days 10, 11, 12, 13, and for 168 hours following Day 14 dose. Urine samples were collected over 24 hours on days 1, 14, 16, 18 and 20. Blood and urine zotarolimus concentrations were determined using a validated LC/MS/MS method. Pharmacokinetic parameters were determined by compartmental analysis. All Day-AUC0-∞ (area under blood concentration-time curve from time 0 to infinity including all 14 doses) was calculated. Dose and time-linearity and achievement of steady-state were evaluated. Fraction of drug eliminated in urine was determined.
Within each group, subjects were equally divided at the two study sites with each site enrolling 12 subjects (zotarolimus, eight subjects; placebo four subjects). The dosing scheme within each dose group is presented below:
Subjects received, under fasting conditions, a single 60-minute daily (QD) intravenous infusion of 200, 400, or 800 μg of zotarolimus or a matching intravenous infusion of placebo for Groups I, II and III, respectively on Study Days 1 through 14. The drug was administered via a syringe pump connected to a y-site device, which also infused 125-150 mL of 5% aqueous dextrose solution (D5W) over 60 minutes. The groups were dosed sequentially with at least 7 days separating the last dose of the previous group and the first dose of the next group during which time safety data from the previous group was analyzed. Dose escalation was dependent on the safety analysis of the lower dose group.
Five (5)-mL blood samples were collected in potassium EDTA containing tubes to evaluate zotarolimus concentrations prior to dosing (0 hour), and at 0.25, 0.5, 1.0, 1 hour 5 min, 1.25, 1.5, 2, 3, 4, 8, 12, 18 and 24 hours after starting infusion on Study Days 1 and 14. Additional samples were collected at 36, 48, 72, 96, 120, 144 and 168 hours after starting infusion on Study Day 14 and before dosing on Days 10, 11, 12 and 13. Urine was collected in containers without preservatives over the following intervals: 0 to 6, 6 to 12, 12 to 18 and 18 to 24 hours after starting the infusion on Study Days 1, 14, 16, 18 and 20.
Blood and urine concentrations of zotarolimus were determined using a validated liquid/liquid extraction HPLC tandem mass spectrometric method (LC-MS/MS). The lower limit of quantification of zotarolimus was 0.20 ng/mL using 0.3 mL blood sample and 0.50 ng/mL using 0.3 mL urine sample.
Safety was evaluated based on adverse event, physical examination, vital signs, ECG, injection site and laboratory tests assessments
The pharmacokinetic parameter values of zotarolimus were estimated for individual subjects using compartmental analysis. Data from the first dose on Study Day 1, the last dose on Study Day 14 and the trough concentrations on Study Days 10, 11, 12 and 13 were simultaneously modeled for each individual subject. […]

human monocytes = test: cytokine production by LPS-stimulated human monocytes (ELISA); assay type: cell-based
Protocol: Experiments were performed to determine the effects of zotarolimus, sirolimus and dexamethasone on the production of TNFα, IL-6 and MCP-1 by activated human monocytes In addition to monocytes and macrophages two other key cell types are involved in the etiology of restenosis, arterial smooth muscle and endothelial cells. These cells are activated and produce cytokines in response to TNFα. […] The activation of cytokine production by human coronary artery smooth muscle and endothelial cells following TNFα treatment was determined by measuring interleukine-8 (IL-8), MCP-1 and IL-6 production. As shown by the results of the experiments described below, the ability of these compounds to inhibit the production of cytokines supports their use in combination as anti-restenotic agents since these cytokines play a role in the development of restenosis. […] After 24 hours, the supernatants were carefully collected and TNFα, IL-6 and MCP-1 levels determined by ELISA. Primary cultures of human coronary artery endothelial and smooth muscle cells were obtained from Cambrex and maintained as described by the vendor. […] After 24 hours the supernatants were removed and replaced with media containing TNFα (5 ng/ml) in the presence and absence of various concentrations of zotarolimus, dexamethasone or sirolimus. The cells were incubated for 24 hours and the supernatants carefully removed and frozen until measurement. Cytokine levels were measured in the supernatants by sandwich ELISA.

SMILES: CO[C@H]1C[C@@H]2CC[C@@H](C)[C@@](O)(O2)C(=O)C(=O)N2CCCC[C@H]2C(=O)O[C@H]([C@H](C)C[C@@H]2CC[C@H](n3cnnn3)[C@H](OC)C2)CC(=O)[C@H](C)/C=C(\C)[C@@H](O)[C@@H](OC)C(=O)[C@H](C)C[C@H](C)/C=C/C=C/C=C/1C [zotarolimus]
- fraction of dose recovered in the urine ([1]; 800 μg QD dose group, within a 24-hour period on Day 1 and Day 14): approximately 0.1%
- most common treatment-emergent adverse events ([1]; 200, 400, 800 μg QD IV for 14 days): pain, headache, injection site reaction, dry skin, abdominal pain, diarrhea and rash
- V1, range of means over the studied regimens ([1]; 200-800 μg QD IV for 14 days): 11.3 to 13.1 L
- steady state for QD dosing reached ([1]; first trough samples measured on Day 10): ≤ 10 days
- AUC(0-inf) ([1]; intravenous, 200 μg QD dose group, read-out: median All Day −AUC0-∞): 677 ng·h/mL
- AUC(0-inf) ([1]; intravenous, 400 μg QD dose group, read-out: median All Day −AUC0-∞): 1440 ng·h/mL
- AUC(0-inf) ([1]; intravenous, 800 μg QD dose group, read-out: median All Day −AUC0-∞): 2400 ng·h/mL
- Cmax ([1]; 200 μg QD IV infusion for 14 days, blood, secondary predicted parameter): 11.2 ± 1.1 ng/mL
- clearance ([1]; 200 μg QD IV infusion for 14 days, blood, secondary predicted parameter, read-out: CL (converted)): 70 mL/min
- Vd ([1]; 200 μg QD IV infusion for 14 days, blood, secondary predicted parameter, read-out: Vss): 92.5 ± 13 L
- half-life ([1]; 200 μg QD IV infusion for 14 days, blood, harmonic mean ± pseudo-standard deviation, read-out: t½ (converted)): 24.7 ± 4.6 h
- AUC ([1]; 200 μg QD IV infusion, secondary predicted parameter): 49 ± 6.2 ng·h/mL
- Cmax ([1]; 400 μg QD IV infusion for 14 days, blood, secondary predicted parameter): 21.4 ± 2.4 ng/mL
- clearance ([1]; 400 μg QD IV infusion for 14 days, blood, secondary predicted parameter, read-out: CL (converted)): 66.7 mL/min
- Vd ([1]; 400 μg QD IV infusion for 14 days, blood, secondary predicted parameter, read-out: Vss): 112 ± 21.1 L
- half-life ([1]; 400 μg QD IV infusion for 14 days, blood, harmonic mean ± pseudo-standard deviation, read-out: t½ (converted)): 31 ± 4.6 h
- AUC ([1]; 400 μg QD IV infusion, secondary predicted parameter): 104 ± 19 ng·h/mL
- Cmax ([1]; 800 μg QD IV infusion for 14 days, blood, secondary predicted parameter): 38.7 ± 6.3 ng/mL
- clearance ([1]; 800 μg QD IV infusion for 14 days, blood, secondary predicted parameter, read-out: CL (converted)): 76.7 mL/min
- Vd ([1]; 800 μg QD IV infusion for 14 days, blood, secondary predicted parameter, read-out: Vss): 118 ± 18.7 L
- half-life ([1]; 800 μg QD IV infusion for 14 days, blood, harmonic mean ± pseudo-standard deviation, read-out: t½ (converted)): 30 ± 4.1 h
- AUC ([1]; 800 μg QD IV infusion, secondary predicted parameter): 180 ± 17.4 ng·h/mL
- clearance ([1]; 200-800 μg QD IV for 14 days, read-out: CL, range of means over the studied regimens): 66.7 to 76.7 mL/min
- Vd ([1]; 200-800 μg QD IV for 14 days, read-out: Vss, range of means over the studied regimens): 92.5 to 118 L
- half-life ([1]; 200-800 μg QD IV for 14 days, read-out: terminal elimination t1/2, range of means over the studied regimens): 24.7 to 31 h
- AUC(0-inf) ([1]; 200-800 μg QD IV, time 0 to infinity including all 14 doses, read-out: All Day-AUC0-∞, range over the studied regimens): 677 to 2400 ng·h/mL
- dose proportionality and time dependence of pharmacokinetics ([1]; intravenously for 14 consecutive days): dose proportional and time invariant
- MCP-1 production by human monocytes in vitro (human monocytes; FIG. 10): dose-dependently inhibit MCP-1 production
- production of TNFα and IL-6 by human monocytes (human monocytes; FIGS. 10 and 11): not demonstrated
- Maximal Inhibitory Activity, IL-6 (human monocytes; Monocytes, 24 hours): − (− indicates maximal inhibitory activity less than 50% of control)
- Maximal Inhibitory Activity, MCP-1 (human monocytes; Monocytes, 24 hours): +++ (+++ indicates maximal inhibitory activity of 75-100% of control)
- Maximal Inhibitory Activity, TNF (human monocytes; Monocytes, 24 hours): − (− indicates maximal inhibitory activity less than 50% of control)
